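Tested at 5 concentrations; 48 h exposure; 96-well plates; endpoints linearly interpolated, else capped at highest concentration. GI50 = concentration required for 50% inhibition of growth.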 Activity calls are given as the source filed them. Cut-off read from the data, not from the text of the source: active = GI50 up to about 1.1 µM and inactive = higher. Starred links: 1 amine or outer side, 2 acyl side, 3 side chain; linkers in the order of their positions; H or OH if unused. Non-standard residues stand in square brackets, D forms with d. Residues, ends and D or L forms follow the SMILES beside them. *: point of attachment. X47 = CCC(=O)CC1CC(C)CC(C(=O)[*:2])N1[*:1]; X46 = CCCCCCCCC(C)C(=O)*; Aib = CC(C)(N)C(=O)O; X48 = CC(CN(C)CCO)N*
Assays:
Assay in all cases: growth of human tumour cells (NCI), 48 h
[1] = test system: Hs-578T
[2] = test system: M19-MEL
[3] = test system: SNB-78
[4] = test system: HOP-18
[5] = test system: DLD-1
[6] = test system: LXFL 529
[7] = test system: DMS-273
[8] = test system: XF498

In the case of `C/C(Cl)=N\OC(=O)Nc1ccc(C)cc1`, the GI50 [1] is reported as 28.6 µM (inactive).

In the case of `COc1cc(OC)cc(Oc2nc3ccc(C(F)(F)F)cc3nc2-c2ccccc2)c1`, the GI50 [1] is reported as > 100 µM (inactive).

`Oc1ccc(/C=N/c2ccccc2O)cc1` was tested, and the GI50 [1] was 37.2 µM (inactive).

`CCCCCCCCC(C)C(=O)N1CCCC1C(=O)N1C(CC(=O)CC)CC(C)CC1C(=O)NC(C)C(=O)NC(C)(C)C(=O)NC(C)(C)C(=O)NC(C(=O)NC(C)C(=O)NC(C)(C)C(=O)NC(C)(C)C(=O)NC(C)CN(C)CCO)C(C)CC` (centres undefined) (X46-P[X47]A[Aib][Aib]IA[Aib][Aib]-X48; configuration not given here) was tested, and the GI50 [1] was 0.168 µM (active).

`COC(=O)C(=O)Nc1cc2c3c(c1)Oc1cccc4c1C3(C)c1c(cccc1O2)O4` was tested, and the GI50 [1] was > 83.4 µM (inactive).

In the case of `C/C=C(/C)C(=O)OC1CC(C)[C@H]2CC(=O)C(C)=C2CC1C(C)(C)OC(C)=O` (some centres undefined), the GI50 [1] is reported as 35.4 µM (inactive).

`N#C/C(=C1/c2cc([N+](=O)[O-])ccc2-c2c1cc([N+](=O)[O-])cc2[N+](=O)[O-])N1CCCCC1` was tested, and the GI50 [1] was 43.7 µM (inactive).

For `C=C1c2nc3ccccc3n2C=C(c2ccc(OC)cc2)N1c1ccccc1`, the GI50 [1] was 14.4 µM (inactive).

In the case of `CN(C)CC/C(=N\Nc1ccc(Cl)c(Cl)c1)c1ccccc1`, the GI50 [2] is reported as 1.89 µM (inactive), the GI50 [3] is reported as 2.4 µM (inactive) and the GI50 [4] is reported as 1.52 µM (inactive). The GI50 [5] was 3.39 µM (inactive), the GI50 [6] was 1.52 µM (inactive) and the GI50 [7] was 1.75 µM (inactive).

`Cc1nnc2nc(-c3ccc(Cl)cc3Cl)cc(-c3ccc(Cl)cc3)n12` was tested, and the GI50 [1] was > 100 µM (inactive).

For `CCCCCCCCCCCCCCCCCCNc1ccn(C2OC(COP(=O)(O)OCC3OC(n4ccc(N)nc4=O)C(O)C3O)C(O)C2O)c(=O)n1` (centres undefined), the GI50 [1] was > 100 µM (inactive).

In the case of `CN1C(=S)CSc2ccccc21`, the GI50 [2] is reported as > 100 µM (inactive), the GI50 [3] is reported as > 100 µM (inactive) and the GI50 [5] is reported as > 100 µM (inactive). For the same compound, the GI50 [6] was > 100 µM (inactive), the GI50 [7] was > 100 µM (inactive) and the GI50 [8] was 32.4 µM (inactive).

In the case of `COC(=O)CNS(=O)(=O)c1ccc(-c2c3nc(c(-c4ccc(S(=O)(=O)NCC(=O)OC)cc4)c4ccc([nH]4)c(-c4ccc(S(=O)(=O)NCC(=O)OC)cc4)c4nc(c(-c5ccc(S(=O)(=O)NCC(=O)OC)cc5)c5ccc2[nH]5)C=C4)C=C3)cc1`, the GI50 [1] is reported as > 100 µM (inactive).

With `OC1(C(O)(c2ccc(-c3ccccc3)cc2)c2ccc(-c3ccccc3)cc2)CCCCC1` the GI50 [1] was > 100 µM (inactive).

For `COc1cc2c(c(OC)c1OC)-c1ccc(SC)c(=O)cc1C(CC(=O)Oc1ccccc1F)C2` (centres undefined), the GI50 [2] was 0.0218 µM (active), the GI50 [3] was 0.0206 µM (active) and the GI50 [5] was 0.0196 µM (active). For the same compound, the GI50 [6] was 0.0266 µM (active) and the GI50 [7] was 0.00991 µM (active).

In the case of `CC1(C)NC(C)(C)/C(=N\O)C(=NO)/C1=N/O`, the GI50 [1] is reported as > 100 µM (inactive).

In the case of `COc1ccc(N2C(=O)C(Cl)C2c2cc3cc(Br)ccc3nc2Cl)cc1` (centres undefined), the GI50 [1] is reported as 11.5 µM (inactive).

`N#CC[C@@H](O)COc1ccccc1` was tested, and the GI50 [1] was > 100 µM (inactive).

For `COc1ccc(/C=C/c2cc(O)cc(OC3OC(CO)C(O)C(O)C3O)c2)cc1O` (centres undefined), the GI50 [1] was > 100 µM (inactive).

`CC(C)(C)OC(=O)CC(NC(=O)OC(C)(C)C)C(=O)NC(C(=O)O)C(O)c1ccccc1` (centres undefined) was tested, and the GI50 [1] was 70.8 µM (inactive).

With `CN(C)c1ccc(/C=C2\Oc3ccccc3C2=O)cc1` the GI50 [1] was 22.5 µM (inactive).

For `Sc1ncnc2c1ncn2Cc1ccco1`, the GI50 [1] was > 100 µM (inactive).

With `COc1c(CCl)cc(-c2cc(=O)c3ccccc3s2)cc1CCl` the GI50 [1] was 9.57 µM (inactive).

With `CC(=O)OC1C(O)COC(O[C@H]2CC[C@]34C[C@]35CC[C@]3(C)C([C@@]6(C)CC[C@@H](C(C)(C)O)O6)[C@@H](O)C[C@@]3(C)C5C[C@H](OC3OCC(O)C(O)C3O)[C@H]4C2(C)C)C1OC1OCC(O)C(O)C1O` (some centres undefined) the GI50 [1] was > 100 µM (inactive).

In the case of `COc1ccc(C(SCCO)(c2ccccc2)c2ccc(OC)cc2)cc1`, the GI50 [1] is reported as 11.1 µM (inactive).

`O=C(CCc1cccc(O)c1)NCCCNC(=O)CCc1cccc(O)c1` was tested, and the GI50 [1] was > 100 µM (inactive).

With `CO[C@H]1C[C@H](O[C@H]2CC[C@@]3(C)[C@H](CC[C@@H]4[C@@H]3CC[C@]3(C)[C@@H](C5=CC(=O)OC5)CC[C@]43O)C2)O[C@H](C)[C@H]1O` the GI50 [1] was < 0.01 µM (active).

In the case of `COC(=O)/C=C/c1ccc2c(c1)CC1(Cc3ccccc3C1)C2`, the GI50 [1] is reported as 23.6 µM (inactive).

`c1ccc(SC(Sc2ccccc2)c2ccc3c(c2)OCO3)cc1` was tested, and the GI50 [1] was > 100 µM (inactive).

With `CC(=O)O[C@H]1CCC2[C@@H]3CCC4=C(O)C(=O)C(C#N)C[C@]4(C)C3CC[C@@]21C` (some centres undefined) the GI50 [2] was 45.2 µM (inactive), the GI50 [3] was 47.5 µM (inactive) and the GI50 [5] was 25.4 µM (inactive). The GI50 [6] was 35 µM (inactive), the GI50 [7] was 19.4 µM (inactive) and the GI50 [8] was 22 µM (inactive).

Source: ChEMBL document CHEMBL1201862, “PubChem BioAssay data set” (2004)
